Assay results taken from patent US6767708B1, “Stabilized aqueous steroid immunoassay standards” (Abbott Laboratories, priority 1994, dated 2004).

Assay: Stability of progesterone in charcoal stripped human serum stressed at 37° C. (percent loss by IMx Progesterone immunoassay)
Format: physicochemical
Settings: for Reduction in % loss of progesterone over time by addition of chelator compared to no added reagent: days 0, 3, 8, 15 and 29, FIG. 1; for Percent loss of progesterone: 5 ng/mL progesterone in charcoal stripped human serum, after 29 days, relative to frozen aliquot
Experimental: Fifteen microliters (15 μL) of a serum sample were mixed with 80 μL of progesterone sample buffer, 80 μL of an anti-progesterone antibody coated microparticle suspension and 75 μL of IMx® Buffer. The reaction mixture was incubated for 20.8 minutes at 37° C. Progesterone sample buffer was an aqueous pH 2.8 solution of 2.25 M glycine, 0.5 μg/mL of 5-∝-dihydrotestosterone, 0.2% (w/v) saponin, 0.1 M sodium chloride and 0.1% methyl isothiazolinone (available from Rohm and Haas, Philadelphia, Pa.). The anti-progesterone antibody (available from University of Surry, Australia) coated microparticle suspension contained 0.001% solids (microparticles available from Seradyne, Indianapolis, Ind.) suspended in a buffer that was a pH 6.5 aqueous solution of 0.5 M morpholinoethanesulphonic acid (MES), 0.1 M sodium chloride, 10% sucrose, 2% bovine serum albumin (available from Intergen, Hawthorne, N.Y.), 0.1 mg/mL sheep IgG (50% ammonium sulfate cut of sheep serum obtained from Irvine Scientific, Santa Ana, Calif.) and 0.2% sodium azide.
One hundred seventy five microliters (175 μL) of the reaction mixture were transferred to the fiber matrix of an IMx® disposable cartridge. The microparticles were then washed with IMx® Buffer. Sixty microliters (60 μL) of 17-hydroxyprogesterone-3-(O-carboxymethyl)oxime alkaline phosphatase conjugate solution were added to the matrix, the reaction was incubated for 8 seconds at 37° C., and then washed again with IMx® Buffer. The conjugate solution contained 17-hydroxyprogesterone (available from Steraloids, Wilton, N.H.) coupled to alkaline phosphatase (available from Boehringer Mannheim, Germany) by means of the EDAC coupling procedure as described in U.S. Pat. No. 5,342,760. The conjugate solution was a pH 7.4 aqueous solution of 50 mM tris, 100 mM sodium chloride, 10 mM magnesium chloride, 0.1 mM zinc chloride, 0.5% casein (available from Sigma Chemical, St. Louis, Mo.) and 0.1% sodium azide containing sufficient conjugate to give a certain signal strength when utilized in an assay of sample free of analyte.
The addition of 4-methylumbelliferone phosphate and quantification of the rate of 4 methylumbelliferone formation was as described in Example 1. Using calibrators containing 0, 1, 4, 10, 20, and 40ng/mL of progesterone a standard curve was constructed.
Test samples were incubated at 37° C. and observed over a period of days or weeks.
Charcoal stripped human serum as prepared in Example 3 (non-alkaline shocked) (10 mL) was aliquoted into glass scintillation vials and various metal chelators were added to the following final concentrations:
Samples were incubated on a rocker for 12 min. at room temperature and then spiked to 5 ng/mL with 10 μg/mL progesterone (available from Sigma Chemical, Saint Louis, Mo.) prepared in an ethanol stock solution. Samples were assayed for baseline concentrations of progesterone following an 8 min. incubation on a rocker at room temperature. Four 1.0 mL aliquots of each composition were placed in TDx® microcentrifuge tubes (available from Abbott Laboratories, Abbott Park, Ill.) and stored frozen −20° C. The scintillation vials were incubated at 37° C. On the days indicated, aliquots were thawed and tested with the corresponding aliquots drawn from the vials stored at 37° C. to assess percent loss.
Percent loss (% loss) is an absolute determination of the loss of progesterone in the stressed sample relative to the frozen aliquot. […]

Compound: O=C(O)CN(CCN(CC(=O)O)CC(=O)O)CCN(CC(=O)O)CC(=O)O [DETP, diethylenetriaminepentaacetic acid]
- Reduction in % loss of progesterone (ranking of chelators) (10 mM DETP, charcoal stripped human serum): most effective
- Reduction in % loss of progesterone over time by addition of chelator compared to no added reagent (charcoal stripped human serum): reduction in % loss

Compound: O=C(O)CN(CCN(CC(=O)O)CC(=O)O)CC(=O)O [EDTA, ethylenediaminetetraacetic acid]
- Reduction in % loss of progesterone over time by addition of chelator compared to no added reagent (charcoal stripped human serum): reduction in % loss

Compound: CC(=O)[C@H]1CC[C@H]2[C@@H]3CCC4=CC(=O)CC[C@]4(C)[C@H]3CC[C@]12C [progesterone]
- Percent loss of progesterone (10 mM DETP): eliminated
- Percent loss of progesterone (no reagent added): ~80%
